# Assay results taken from US10857214B2, “Compositions and methods for treating gluten intolerance and disorders arising therefrom” (Codexis, Inc., priority 2015, dated 2020).
# How the values were obtained:
# [1] = test system: NOD DQ8 mice; experiment: transgenic NOD/HLA-DQ8 mouse model of gliadin sensitivity; conditions: gliadin codigested with pepsin 100:1 and fluid enzyme 264:1 or nepenthesin II 100:1; pepsin alone is positive control
# [2] = test system: crude gliadin; experiment: SDS-PAGE and proteomic LC-MS/MS analysis of crude gliadin digests; type: biochemical, Triticum aestivum
# Description: Digestions at pH 2.5 and 37° C., for 90 min. All concentrations in μM. M: Molecular weight markers, and gliadin: total crude gliadin in the absence of protease. […] Peptide data from LC-MS/MS runs, with intensities obtained using Protein Deconvolution 1.0. […] A stock gliadin slurry of 20-50 mg/ml was prepared in acidic solution (100 mM glycine HCl, pH 2.5) and briefly sonicated to further break up large particulates and promote suspension. Digestions of 10 mg/mL gliadin slurries were initiated by addition of enzyme (pepsin, fluid enzymes or both) and held at 37° C. with gentle rotation. Digest progress was monitored by gravimetric analysis, optical transmission, SDS-PAGE and mass spectrometry. For gravimetric analysis, digests were quenched by boiling and treated with TCA/chloroform, followed by centrifugation to recover undigested or poorly digested protein. For monitoring with optical transmission, digestion reactions were conducted in 96-well plate with ≥3 replicates of each reaction condition, and turbidity monitored at 595 nm at 37° C. every 2 minutes, for 90 minutes (SpectraMax plate reader, Molecular Devices). The plate was shaken at medium speed briefly between measurements. The digests were quenched after 90 min reaction by boiling for 10 minutes (confirmed to have no impact on digestion profile, a posteriori). An aliquot of the reaction mixture was analyzed on an 8% SDS-PAGE gel. The remaining amount was centrifuged and the supernatant was analyzed by mass spectrometry. Supernatant was analyzed by data-dependent LC-MS/MS, in two 1-hour reversed phase gradient runs, configured for top-10 ion selection using CID in a high/low configuration. In one run, ion selection was restricted to 2+ and higher charge states. In the other run, ion selection was applied to 1+ charge states only. Data from both runs were combined and searched against all UniprotKB/Swiss-Prot entries for gliadin and glutenin from Triticum aestivum (25 proteins), using Mascot v2.3, configured for non-specific digestions and filtered for peptide hits with p<0.05. For estimation of peptide size distribution, all LC-MS spectra were combined and deconvoluted in Protein Deconvolution v1.0, with appropriate settings. For label-free quantitative analysis using the subset of the digest identified in the database search, the hit list was combined with the raw data in Mass Spec Studio and used to generate a set of peptide ion chromatograms, integrated over all isotopes to determine a weight-average intensity for each peptide sequence identified.
# [3] = test system: 33mer from α-gliadin; experiment: digestion of 33mer peptide by fluid fractions, MALDI-TOF; type: biochemical
# Description: Left: Silver-stain SDS-PAGE of fraction 1 containing nepenthesin, and MALDI spectrum of 33mer peptide processed with fraction 1. Right: Silver-stain SDS-PAGE of fraction 2 containing an unknown enzyme, and MALDI spectrum of 33mer peptides processed with fraction 2. MALDI of undigested 33mer in red, digested 33mer in black.
# Two proteolytic components were isolated. Activity was retested against a 33mer from α-gliadin using MALDI-TOF. Fractions were also analyzed for protein content using MALDI-TOF (sinapinic acid as matrix), highlighting a single peak at 29 kDa. Fractions enriched in non-specific cleavage properties were further purified using gel filtration and retested for purity and for activity against 33mer.
# Fluid protein concentrate was exchanged into 50 mM glycine and subjected to column chromatofocusing with fractionation. Fractions were analyzed for activity using MALDI-TOF (Sciex 5800 TOF/TOF, α-cyano-4-hydroxycinnamic acid as matrix). To test for activity, protein substrates were incubated with aliquots of column fractions at room temperature for 20 minutes and the digests analyzed by MALDI-TOF. Fractions enriched in proline cleavage were manually purified by reversed phase chromatography on Protein MacroTraps (Optimize Technologies). Enzyme was eluted and confirmed active against protein substrates.
# [4] = test system: α-gliadin peptide 33mer; experiment: digestion profile of α-gliadin peptide 33mer under dilute conditions, LC-MS; type: biochemical; conditions: equivalent digestion conditions at optimum pH (2 for pepsin, 7 for MX)
# Excerpt: Normalized relative abundance measured from LC-MS ion chromatograms, using caffeine as internal standard. Figure discloses SEQ ID NOS 88, 28, and 89-91, respectively, in order of appearance.
# Using the pepsin-resistant 33mer, the evolution of peptide products was monitored under dilute conditions.
# [5] = test system: crude gliadin digests treated with human transglutaminase-2; experiment: TG2-induced deamidation of gliadin digestion products; type: biochemical; conditions: 0.1 mg/mL human transglutaminase-2, pH 7.5, 37° C., 90 minutes
# Excerpt: Fractional deamidation quantified for all peptides from ion chromatogram intensities; data presented as a ratio, where the antigenic peptide deamidation is normalized to the non-antigenic peptide deamidation at the indicated protease concentration. Antigenic regions defined using the DQ2 criteria, inset table.
# Whether enhanced digestion profiles would impact deamidation in antigenic regions was investigated. The recognition of immunodominant peptides by T cells is amplified when these peptides are deamidated in their core binding region by tissue transglutaminase 2 (TG2), particularly at position P4 or P6 in HLA DQ2 associated celiac disease. […] Crude gliadin digests were analyzed for the conversion of non-deamidated peptides to deamidated forms, and sorted all the peptides using a previously published algorithm for the identification of DQ2 binding motifs.
# Supernatants from crude gliadin digests were treated with 0.1 mg/mL human transglutaminase-2 (R&D Systems, Cat. 4376-TG-050) in 100 mM Tris-HCl pH 7.5, 2 mM CaCl2 at 37° C. for 90 minutes, and quenched at 95° C. for 15 minutes, following a published protocol. Treated digests were analyzed by data-dependent LC-MS/MS as described above, allowing for variable N and Q deamidation in database searches. […]
# [6] = test system: crude gliadin; experiment: crude gliadin slurry clarification (gravimetric analysis, turbidity at 595 nm); type: biochemical, wheat; conditions: 10 g/L crude gliadin slurry, pH 2.5, 37° C.; enzyme alone
# Description: Inset: temporal profiling of slurry (left to right: 0, 30, 60, 90 min) using the protein-enriched fluid extract. […] Turbidity of the digested gliadin was monitored as absorbance at 595 nm ([…]). Black lines represent the turbidity of the gliadin slurry in the absence of protease. Measurement precision was <3% RSD (n=3). […] Data taken from FIGS. 8A-8C. Values reported as milligrams of gliadin per micromolar enzyme concentration per minute digestion time. […] Digest progress was monitored by gravimetric analysis, optical transmission, SDS-PAGE and mass spectrometry. […] For monitoring with optical transmission, digestion reactions were conducted in 96-well plate with ≥3 replicates of each reaction condition, and turbidity monitored at 595 nm at 37° C. every 2 minutes, for 90 minutes (SpectraMax plate reader, Molecular Devices). […] An aliquot of the reaction mixture was analyzed on an 8% SDS-PAGE gel. The remaining amount was centrifuged and the supernatant was analyzed by mass spectrometry.
substance,measurement,setting,value
pepsin: gastric enzyme (EC 3.4.23.1) used as control protease,small intestinal CD3+ intraepithelial lymphocyte (IEL) counts,[1],significant increases
same,digestion of total protein of crude gliadin by SDS-PAGE,"[2]; 10 mg/ml gliadin, pH 2.5, 37° C., 90 min",could not be achieved
same,detected digest product having a molecular weight greater than 4000 Da,"[2]; 10 mg/ml gliadin, pH 2.5, 37° C., 90 min, high concentrations of pepsin",25 wt %
same,"average peptide length, label-free, all peptide signals","[2]; 10 mg/ml gliadin, pH 2.5, 37° C., 90 min, pepsin 5 μM, fluid extract 0.23 μM",19.2 residues
same,"weighted average peptide length, identified peptides","[2]; pepsin 5 μM, fluid protease 0.46 μM, co-digestion using these two concentrations",16.9 residues
same,digestion of 33mer peptide derived from α-gliadin,[3],highly resistant to digestion
same,hydrolysis of 33mer peptide,[4],Neither pepsin nor a bacterial prolyl endoprotease from Myxococcus xanthus (MX) were able to hydrolyse
same,peptide conversion (deamidation) in antigenic regions compared to non-antigenic regions,[5],over 5.5 times
same,maximum clarification rate,[6],0.3 mg/µM/min
